Read-outs that look alike come from different tables or passages of the source.
How the values were obtained:
heme oxygenase = molecular target: T1, heme oxygenase (Rattus norvegicus, UniProt P06762); test: rat spleen heme oxygenase incubation, in vitro inhibition; assay type: biochemical; conditions: for Km: normal Km 3.64 μM, read-out: Km for degradation of heme by heme oxygenase to bile pigment
T1 construct: rat spleen - heme oxygenase incubation mixtures; from tissue; host or cells: rat spleen
T1 sequence (P06762 1-289): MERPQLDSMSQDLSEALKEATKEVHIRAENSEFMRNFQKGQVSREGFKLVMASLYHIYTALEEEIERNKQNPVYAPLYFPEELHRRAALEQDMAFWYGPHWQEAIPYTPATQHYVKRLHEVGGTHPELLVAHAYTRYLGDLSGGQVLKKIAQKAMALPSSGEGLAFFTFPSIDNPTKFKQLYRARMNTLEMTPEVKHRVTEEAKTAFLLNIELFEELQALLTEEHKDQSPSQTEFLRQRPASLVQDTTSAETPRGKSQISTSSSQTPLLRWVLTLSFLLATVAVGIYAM

serum bilirubin [1] = test: serum bilirubin in newborn rats after a single subcutaneous injection at birth
serum bilirubin [2] = test: experimental postnatal hyperbilirubinemia produced by ALA in 7 day old rats, serum bilirubin; assay type: in vivo, rat; conditions: single dose 1 μmol/kg body weight at 0 time, 24 hours
Protocol: (§1) The efficacy of SnMP for controlling hyperbilirubinemia was also examined in a model of experimental postantal hyperbilirubinemia in the rat utilizing the heme precursor […] (ALA) to produce jaundice 7 days after birth (Drummond & Kappas, J. Clin. Invest., 74, 142-149, 1984). AlA (50 μmol/100g body weight) administered to suckling 7 day old neonates at 0,4 and 8 hours produced an approximately 3 fold increase in serum bilirubin levels 24 hours after the initial injection (FIG. 3). […] Heme oxygenase was assayed as earlier described (J. Biol. Chem., 253, 2321-2326, 1978).

hepatic heme oxygenase = hepatic heme oxygenase activity in ALA-treated 7 day old rats; assay type: in vivo, rat; conditions: single dose 1 μmol/kg body weight
Protocol: as §1

[3] = biliary output of bilirubin, heme and iron in rats; assay type: in vivo, rat
Protocol: It has been observed that when heme is administered alone to animals such as rats, a large output of biliary bilirubin (mono- and diglucuronide forms) occurs, with a slight output of excess heme.
It is therefore clear that the administration of SnMP to mammals increases the biliary excretion of excess heme and thus of its contained iron atom as well. They make it clear also that the excess heme which accumulates when the rate of bilirubin production is decreased by the administration of SnMP is excreted in the bile and not stored in tissues. More particularly, they make it clear that the administration of SnMP to mammals suffering acute or chronic excess of heme or iron will increase the rate at which such heme or iron will be excreted into the intestinal contents.

[4] = tested on: liver tryptophan pyrrolase; test: liver tryptophan pyrrolase activity and heme saturation after parenteral administration to rats; assay type: in vivo, rat; conditions: 1 μmol/kg s.c.
Protocol: With adults afflicted with sickle cell anemia or another condition resulting in increased bilirubin concentration, the dosage unit is normally smaller since in all but the most acute situations, the bilirubin concentration is not as high as in neonates. The standard dosage with adults will normally be from about 2 to 5 mg/kg of body weight. […] In this study SnMP was administered subcutaneously at a dosage level of 1 μmol/kg of body weight to male Sprague-Dawley rats (180-200g). Control animals received an equivalent volume of aqueous isotonic saline. Tissue preparation of liver fractions for enzymic assays were conducted as described by Drummond and Kappas. Proc. Natl. Acad. Sci. USA. 78:6466-6470 (1981). Tryptophan pyrrolase activity was determined both in the absence (holoenzyme) and the presence (total enzyme) of added heme ([…]). The latter enzyme activity was calculated from the linear phase of kynurenine formation. The percent heme saturation for tryptophan pyrrolase was expressed as the ratio of holoenzyme to total enzyme (×100 ). Each data point in the figure represents the mean value of determinations in 3 to 6 animals.

tin mesoporphyrin [SnMP]
inhibition of heme oxygenase activity (heme oxygenase; 0.025 and 0.05 μM SnMP): marked competitive inhibition | Km (heme oxygenase; SnMP 0.025 μM): 11.1 µM | Km (heme oxygenase; SnMP 0.05 μM): 18.2 µM | in vitro ability to inhibit the production of bilirubin relative to SnPP (heme oxygenase; compared with SnPP): just about as effective in this regard as SnPP | Ki (heme oxygenase; rat spleen heme oxygenase, read-out: inhibition constant Ki for the inhibition of the conversion of heme to bilirubin by heme oxygenase): 0.013 µM | effect on the increase in serum bilirubin 24 hours after birth (serum bilirubin [1]; 1 μmol/kg body weight s.c. once at birth): entirely prevented | effectiveness in vivo in lowering plasma bilirubin / suppressing neonatal jaundice relative to SnPP (serum bilirubin [1]; compared with SnPP): 5-10 times | effect on the increase in serum bilirubin produced by ALA (serum bilirubin [2]): substantially diminished | effect on the increase in hepatic heme oxygenase activity associated with ALA administration (hepatic heme oxygenase): prevented the increase | output of biliary iron ([3]; bile duct cannulated rats): increase in output of biliary iron | biliary bilirubin output ([3]; rats, SnMP administered with heme): the bilirubin peak will decline | percent heme saturation of tryptophan pyrrolase ([4]; male Sprague-Dawley rats, in two hours): approximately 80% | duration of the initial high tryptophan pyrrolase activity relative to SnPP ([4]; rats, compared with SnPP): maintained for a more extended period of time

From US4657902A, “Therapeutic use of tin mesoporphyrin” (The Rockefeller University, priority 1985, dated 1987)
